# “And” between values parts separate entries of the source, which are not always exact repeats. Equal entries are not always repeated.
# Legend:
# [1] = target: Na,K-ATPase α1β1 isoform complex (Homo sapiens, UniProt P05023); experiment: biochemical; conditions: Ki ± S.E. α1, Table 2; α1β1
# Method: (§1) Methods for transformation, culture of P. pastoris clones, protein expression of Na,K-ATPase human isoforms (α1β1, α2β1, α3β1), membrane preparation, solubilization of membranes in DDM, and purification on BD-Talon beads have been described in detail (6-9, 11, 25). In initial experiments the three purified isoform complexes (0.3-0.5 mg/ml) were eluted from the BD-Talon beads in a solution containing Imidazole 170 mM, NaCl 100 mM; Tricine.HCl 20 mM pH 7.4; C12E8, 0.1 mg/ml; SOPS 0.07 mg/ml cholesterol 0.01 mg/ml, glycerol 25%. In later experiments the isoforms complexes were reconstituted with purified FXYD1 on the BD-Talon beads together as described in detail in (10, 11) prior to elution of α1β1FXYD1, α2β1FXYD1 and α3β1FXYD1 complexes. The proteins were stored at −80° C. Protein concentration was determined with BCA (B9643 Sigma).
# (§2) Inhibition of Na,K-ATPase activity of the detergent-soluble α1β1, α2β1, and α3β1 complexes by CG's was determined as described (6) using either the αβ or αβFXYD1 complexes. […] The K0.5K was estimated by varying K concentration in a medium containing a fixed total K+choline chloride of 60 mM, and constant NaCl of 140 mM. Curves were fitted to the Hill function v=Vmax*[S]^n/([S]^n+K^n), where S is the K concentration, n is the Hill coefficient and K^n is K0.5K. For comparison of different curves the ratio v/Vmax for each curve was calculated and replotted. In experiments to assess inhibition of Na,K-ATPase activity by cardiac glycosides of the present invention, the percent inhibition VCG/V0 was calculated and Ki values were obtained by fitting the data to the function VCG/V0=Ki/([CG]+Ki)+ c. Inhibition was estimated in 3-8 separate experiments and average Ki values ±SEM were calculated. Significance of differences between Kiα1 and Kiα2 was calculated by the unpaired Student's t-test (p values). […] P values <0.05 were considered significant.
# [2] = target: Na,K-ATPase α2β1 isoform complex (Homo sapiens, UniProt P50993); experiment: biochemical; type: biochemical; conditions: Ki ± S.E. α2, Table 2; α2β1
# Method: as §1, §2
# [3] = tested on: Na,K-ATPase α2β1 isoform complex; experiment: biochemical; type: biochemical, human; conditions: for Selectivity ratio Ki α1/α2 ± S.E.: Kiα1β1/Kiα2β1
# Method: as §1, §2
# [4] = tested on: intra-ocular pressure (IOP) of rabbits; experiment: 4-aminopyridine (4AP)-induced ocular hypertension in rabbits; type: in vivo, New Zealand white rabbits; conditions: for Time IOP is maintained at the low level: 1 mM; for Time IOP is maintained at the low level / Time IOP is held at the low level: single drop; for Order of relative effects on IOP: all at 0.1 mM, 1.5 hours after 4AP, average of three experiments
# cornea of rabbits = experiment: Pachymetry: corneal thickness and local toxicity after topical cardiac glycosides; type: in vivo, New Zealand white rabbits; conditions: for Corneal thickness: 0.5 mM; for Corneal thickness (in words): over 4 hours, Digoxin 1 mM, DGlyN 0.5 mM, DMe 0.5 mM, ouabain 1 mM; for Corneal thickness (in words) / Redness or local irritation in conjunctiva or cornea: after 4AP; for Redness or local irritation in conjunctiva or cornea: topical
# Method: Thus, in this study, no change in corneal thickness was detected (Table 3), indicative of lack of local toxic effects. […] Similar results were obtained with CG's applied after IB-MECA.
# IOP (mm Hg) of rabbits was measured using a calibrated Pneumatonometer (Model 30, Reichert technologies, FIG. 1). A local anesthetic Oxybuprocaine HCl (0.4%, 25 μl) was applied to each cornea about a minute before IOP measurements. Two baseline IOP readings were taken before topical administration of the CG (or PBS as control) and after half an hour (Zero time). […] At zero time one drop of 4AP (40 mg/ml, 30 μl) or IB-MECA (1 μM, 30 μl) was administered to both eyes of each rabbit IOP measurements were made at different times as indicated in each experiment. In the experiments for which the IOP was elevated for several hours, 4AP was added every 1.5 hours or IB-MECA every 2 hours. […] Each experiment was repeated two or three times with similar results. In all cases the figures depict the average effect on IOP (i.e for four or six eyes) compared to control ±SEM. Where error bars are not seen in the figures, the errors are smaller than the symbols used. Significance of differences from the control was calculated by the unpaired Students t-test (p values), p values <0.05 were considered significant. Corneal thickness (μm) was measured using an ultrasonic pachymeter (Sonogage pachometer, Cleveland, USA), before and during the experiment with CG and 4AP treatments. The values represent averages of three independent measurements for each eye.
SMILES,Ki [1] [nM],Ki [2] [nM],Selectivity ratio Ki α1/α2 ± S.E. [3],Time IOP is maintained at the low level ([4]; 4AP every two hours),Order of relative effects on IOP [4],"Wash-out time/rate compared with other cardiac glycosides ([4]; equal concentrations, 4AP every two hours)","Corneal thickness (cornea of rabbits; left eye, 0 h) [microns]","Corneal thickness (cornea of rabbits; left eye, 2 h) [microns]","Corneal thickness (cornea of rabbits; left eye, 4 h) [microns]","Corneal thickness (cornea of rabbits; right eye, 0 h) [microns]","Corneal thickness (cornea of rabbits; right eye, 2 h) [microns]","Corneal thickness (cornea of rabbits; right eye, 4 h) [microns]",Corneal thickness (in words) (cornea of rabbits),Redness or local irritation in conjunctiva or cornea (cornea of rabbits),"Selectivity α1β1/α2/β1 ([3]; ratio of Ki, Table 6)","Time IOP is held at the low level ([4]; 0.2 mM, 4AP every two hours) [h]","Time IOP is held at the low level ([4]; 0.5 mM, 4AP every two hours) [h]","Time IOP is held at the low level ([4]; 2 mM, 4AP every two hours) [h]"
CC1CN(CC(N)=O)CCC(OC2C(O)CC(OC3C(O)CC(OC4CCC5(C)C(CCC6C5CC(O)C5(C)C(C7=CC(=O)OC7)CCC65O)C4)OC3C)OC2C)O1 (stereo not shown) [DGlyN],152 ± 5.5,20.4 ± 1,7.45±0.46 and 7.45,3.5 h,DGlyN≈DMe≈digoxigenin>digoxin>ouabain,slightly faster than for DMe,498,462,455,496,476,454,not significantly affected,neither redness nor local irritation were observed,,,,
CC1CN(C)CCC(OC2C(O)CC(OC3C(O)CC(OC4CCC5(C)C(CCC6C5CC(O)C5(C)C(C7=CC(=O)OC7)CCC65O)C4)OC3C)OC2C)O1 (stereo not shown) [DMe],101 ± 4.4,15.6 ± 2.3,6.47±0.71,about 5.5 hours,DGlyN≈DMe≈digoxigenin>digoxin>ouabain,,465,440,453,507,476,498,not significantly affected,neither redness nor local irritation were observed,6.7,2.5,4.5,5.8

# Source: patent US9938316B2, “Selective inhibitors of α2 isoform of Na,K-ATPase and use thereof for reduction of intra-ocular pressure and as cardiotonic agents” (priority 2013, dated 2018)
